# Measurements taken from article PMC5779083 (Cellular signalling, 2017).
# Several values for one entry are separate records, joined by “and”; a condition that tells them apart may be missing. Identical values can stand only once.
# What was measured:
# [1] = test system: C57BL/6 mice; test: Warm-water tail-withdrawal assay; assay type: in vivo; details: for analgesic response (increase in tail withdrawal latency): 30 min post-injection, wild type C57BL/6; for change in tail withdrawal latency after norBNI pretreatment: norBNI 10 mg/kg 3–5 days prior
# [2] = biological target: T1, hKOR (Homo sapiens, UniProt P41145); details: hKOR-expressing HEK293 cells; cited from earlier work
# [3] = biological target: T2, rKOR (Rattus norvegicus, UniProt P34975); details: rKOR expressing HEK293; cited from earlier work
# [4] = biological target: T2, rKOR; test: Signaling bias, ERK1/2; assay type: cell-based, rodent; details: ERK1/2 vs p38 phosphorylation, U50,488 as reference
# [5] = biological target: T1, hKOR; test: Signaling bias, ERK1/2; assay type: cell-based; details: ERK1/2 vs p38 phosphorylation, U50,488 as reference
# [6] = test system: untransfected HEK293 cells; test: ERK1/2 and p38 phosphorylation in untransfected HEK293 cells; assay type: cell-based; details: untransfected HEK293, 1 μM, 5 min (pERK) or 30 min (pp38), n=3
# [7] = test system: C57BL/6 mice; test: Acute cross-tolerance to U50,488 in warm-water tail-withdrawal assay; assay type: in vivo; details: 1 mg/kg i.p. pretreatment
# [8] = biological target: rMOR (Rattus norvegicus, UniProt P33535); test: ERK1/2 phosphorylation; assay type: cell-based
# [9] = test system: C57BL/6 mice; test: Locomotor activity; details: 50 μg/kg, n=3; no impairment vs saline (p=0.73)
# [10] = test system: C57BL/6 mice; test: 5′-GNTI-induced scratching; assay type: in vivo; details: for number of scratches induced: 30 μg/kg s.c.
# T2 sequence (P34975 whole entry): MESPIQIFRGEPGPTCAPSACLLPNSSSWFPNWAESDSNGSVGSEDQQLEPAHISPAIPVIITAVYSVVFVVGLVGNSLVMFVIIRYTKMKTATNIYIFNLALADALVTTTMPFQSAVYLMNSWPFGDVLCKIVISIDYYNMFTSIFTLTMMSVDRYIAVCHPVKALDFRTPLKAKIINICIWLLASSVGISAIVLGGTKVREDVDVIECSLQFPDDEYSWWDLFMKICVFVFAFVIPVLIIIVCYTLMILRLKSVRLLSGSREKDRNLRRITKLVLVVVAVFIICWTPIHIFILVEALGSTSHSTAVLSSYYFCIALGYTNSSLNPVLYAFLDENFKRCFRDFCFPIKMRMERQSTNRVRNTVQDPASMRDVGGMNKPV
# T1 sequence (P41145 whole entry): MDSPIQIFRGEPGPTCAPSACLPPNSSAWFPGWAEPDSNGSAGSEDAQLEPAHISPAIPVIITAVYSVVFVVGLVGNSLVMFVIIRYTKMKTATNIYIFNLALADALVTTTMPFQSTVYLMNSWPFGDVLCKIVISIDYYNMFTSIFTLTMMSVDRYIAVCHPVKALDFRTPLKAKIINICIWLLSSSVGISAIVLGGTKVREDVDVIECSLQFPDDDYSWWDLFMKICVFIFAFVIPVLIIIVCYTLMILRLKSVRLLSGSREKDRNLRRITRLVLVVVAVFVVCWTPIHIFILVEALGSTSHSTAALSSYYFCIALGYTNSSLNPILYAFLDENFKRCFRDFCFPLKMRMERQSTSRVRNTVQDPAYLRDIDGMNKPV
# Sequence of rMOR (P33535 whole entry): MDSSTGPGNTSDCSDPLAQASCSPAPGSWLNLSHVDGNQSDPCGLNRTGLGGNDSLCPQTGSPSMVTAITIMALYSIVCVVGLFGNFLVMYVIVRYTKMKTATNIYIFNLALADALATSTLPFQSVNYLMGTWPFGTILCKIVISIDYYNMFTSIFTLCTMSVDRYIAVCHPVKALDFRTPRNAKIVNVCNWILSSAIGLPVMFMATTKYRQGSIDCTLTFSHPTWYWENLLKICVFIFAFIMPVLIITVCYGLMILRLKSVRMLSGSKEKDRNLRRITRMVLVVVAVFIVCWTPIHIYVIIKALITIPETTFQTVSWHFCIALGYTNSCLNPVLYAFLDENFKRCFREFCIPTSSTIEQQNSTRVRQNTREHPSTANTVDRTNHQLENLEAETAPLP
smiles,measurement,setting,value
"Oc1ccc2c3c1O[C@H]1c4[nH]c5c(c4C[C@@]4(O)[C@@H](C2)N(CC2CC2)CC[C@]314)C[C@@]1(O)[C@H]2Cc3ccc(O)c4c3[C@@]1(CCN2CC1CC1)[C@H]5O4 [norBNI, norbinaltorphimine]","effect on U50,488-mediated increase in withdrawal latency","[1]; norBNI 10 mg/kg 3–5 days prior to U50,488, p < 0.01",blocked
same,effect on nalfurafine-mediated increase in withdrawal latency,"[1]; norBNI 10 mg/kg 3–5 days prior to nalfurafine, p < 0.05",blocked
Oc1ccc2c(c1)[C@@]13CCCC[C@@]1(O)[C@@H](C2)N(CC1CCC1)CC3 [Butorphanol],signaling bias (in words),[2],p38-biased
same,signaling bias (in words),[3],G protein biased
CC(C)=CCN1CCC2(C)c3cc(O)ccc3CC1C2C (stereo not shown) [Pentazocine],Bias factor,[4],1.4
same,ΔΔlog(RA) Mean (SEM),[4],0.14 (0.79)
same,signaling bias (in words),[2],p38-biased
same,Bias factor,[5],0.62
same,ΔΔlog(RA) Mean (SEM),[5],−0.20 (0.78)
same,signaling bias (in words),[3],unbiased
"CN(C(=O)/C=C/c1ccoc1)[C@@H]1CC[C@@]2(O)[C@H]3Cc4ccc(O)c5c4[C@@]2(CCN3CC2CC2)[C@H]1O5 [Nalfurafine, (2E)-N-[(5α,6β)-17-(cyclopropylmethyl)-3,14-dihydroxy-4,5-epoxymorphinan-6-yl]-3-(3-furyl)-N methylacrylamide]",Bias factor,[4],7 and 7.2
same,ΔΔlog(RA) Mean (SEM),[4],1.15 (0.74)
same,ΔΔlog(RA) Mean (SEM),[5],3.2 (1.02)
same,increase in ERK1/2 or p38 phosphorylation,[6],No significant increase
same,analgesic response (increase in tail withdrawal latency),[1]; 50 μg/kg i.p.,1.5 ± 0.7 s
same,change in tail withdrawal latency after norBNI pretreatment,[1]; 50 μg/kg,0.6 ± 0.1 s
same,analgesic response (increase in tail withdrawal latency),[1]; 150 μg/kg i.p.,1.7 ± 0.4 s
same,change in tail withdrawal latency after norBNI pretreatment,[1]; 150 μg/kg,0.7 ± 0.2 s
same,"cross-tolerance: effect of pretreatment on U50,488-induced analgesia","[7]; 3 h before U50,488 15 mg/kg i.p.","significantly decreased U50,488-induced analgesia"
same,"cross-tolerance: effect of pretreatment on U50,488-induced analgesia","[7]; 24 h before U50,488 15 mg/kg i.p.",lack of residual analgesic tolerance
same,EC50,[8],7.9 nM
same,"general locomotor activity, distance moved over 30 min",[9],3531 ± 1215 cm
same,5′-GNTI-induced scratching after pretreatment,"[10]; 20 μg/kg s.c. 20 min prior to 5′-GNTI, wild type C57BL/6, n=10, not significant",556 ± 67 scratches in 30 min
same,5′-GNTI-induced scratching after pretreatment,"[10]; 50 μg/kg s.c. 20 min prior to 5′-GNTI 30 μg/kg, KOR−/− mice, n=8, not significant",580 ± 16 times in 30 min
same,5′-GNTI-induced scratching after pretreatment,"[10]; 50 μg/kg s.c. 20 min prior to 5′-GNTI 30 μg/kg, MOR−/− mice, n=8",99 ± 40 times in 30 min
same,5′-GNTI-induced scratching after pretreatment,"[10]; 50 μg/kg s.c. 20 min prior to 5′-GNTI 30 μg/kg, wild type, n=9",241±33 times in 30 min
NC(N)=Nc1ccc2[nH]c3c(c2c1)C[C@@]1(O)[C@H]2Cc4ccc(O)c5c4[C@@]1(CCN2CC1CC1)[C@H]3O5 [5′-GNTI],number of scratches induced,"[10]; KOR−/− mice, n=8",550 ± 84 times in 30 min
same,number of scratches induced,"[10]; wild type mice, n=10",566 ± 60 times in 30 min
